Data as given in the NIST ThermoML archive (doi:10.1021/je200673a).
± gives the expanded uncertainty stated by the source.

Test: molar heat capacity at constant pressure
Settings: 101.33 kPa, Vacuum adiabatic calorimetry

C(#Cc1ccccc1)c1ccccc1 [1,2-diphenylethyne]
molar heat capacity at constant pressure [J/K/mol]
Settings	Crystal	Liquid
122.93 K	102.01 ± 0.84	–
123.75 K	102.53 ± 0.85	–
124.57 K	103.09 ± 0.85	–
125.39 K	103.65 ± 0.86	–
126.22 K	103.97 ± 0.86	–
127.04 K	104.54 ± 0.86	–
127.87 K	104.88 ± 0.87	–
128.69 K	105.58 ± 0.87	–
129.52 K	106.14 ± 0.88	–
130 K	106.33 ± 0.88	–
130.34 K	106.59 ± 0.88	–
131.19 K	107.21 ± 0.88	–
132.02 K	107.62 ± 0.89	–
132.85 K	107.99 ± 0.89	–
133.68 K	108.55 ± 0.9	–
134.51 K	108.88 ± 0.9	–
135.34 K	109.34 ± 0.9	–
136.17 K	110.18 ± 0.91	–
137.01 K	110.88 ± 0.91	–
137.84 K	111.19 ± 0.92	–
138.67 K	111.61 ± 0.92	–
139.51 K	112.13 ± 0.92	–
140 K	112.5 ± 0.93	–
140.35 K	112.75 ± 0.93	–
141.18 K	113.14 ± 0.93	–
142.02 K	113.86 ± 0.94	–
142.86 K	114.26 ± 0.94	–
143.7 K	114.81 ± 0.95	–
144.56 K	115.47 ± 0.95	–
145.4 K	115.88 ± 0.95	–
146.24 K	116.41 ± 0.96	–
147.08 K	117.03 ± 0.96	–
147.93 K	117.53 ± 0.97	–
148.77 K	118.01 ± 0.97	–
149.61 K	118.61 ± 0.98	–
150 K	118.79 ± 0.98	–
150.46 K	119.09 ± 0.98	–
151.31 K	119.49 ± 0.98	–
152.15 K	120.1 ± 0.99	–
153 K	120.73 ± 0.99	–
153.85 K	121.21 ± 1	–
154.7 K	121.63 ± 1	–
155.55 K	122.47 ± 1	–
156.4 K	122.86 ± 1	–
157.25 K	123.14 ± 1	–
158.14 K	124.01 ± 1	–
158.99 K	124.43 ± 1	–
159.85 K	125.3 ± 1	–
160 K	125.14 ± 1	–
160.7 K	125.66 ± 1	–
161.56 K	125.9 ± 1	–
162.42 K	126.63 ± 1	–
163.28 K	127.28 ± 1	–
164.14 K	127.86 ± 1.1	–
165 K	128.31 ± 1.1	–
165.86 K	128.78 ± 1.1	–
166.72 K	129.29 ± 1.1	–
167.58 K	130.02 ± 1.1	–
168.45 K	130.59 ± 1.1	–
169.31 K	131.32 ± 1.1	–
170 K	131.53 ± 1.1	–
170.18 K	131.71 ± 1.1	–
171.05 K	132.15 ± 1.1	–
171.96 K	132.79 ± 1.1	–
172.83 K	133.42 ± 1.1	–
173.7 K	133.85 ± 1.1	–
174.57 K	134.6 ± 1.1	–
175.44 K	135.11 ± 1.1	–
176.31 K	135.5 ± 1.1	–
177.19 K	135.99 ± 1.1	–
178.06 K	136.73 ± 1.1	–
178.94 K	137.42 ± 1.1	–
179.82 K	137.82 ± 1.1	–
180 K	138 ± 1.1	–
180.7 K	138.43 ± 1.1	–
181.58 K	138.91 ± 1.1	–
182.46 K	139.54 ± 1.1	–
183.34 K	140.11 ± 1.1	–
184.22 K	140.8 ± 1.1	–
185.11 K	141.42 ± 1.2	–
186.05 K	142.12 ± 1.2	–
186.93 K	142.62 ± 1.2	–
187.82 K	143.19 ± 1.2	–
188.71 K	143.74 ± 1.2	–
189.6 K	144.35 ± 1.2	–
190 K	144.57 ± 1.2	–
190.5 K	144.84 ± 1.2	–
191.39 K	145.31 ± 1.2	–
192.29 K	146.01 ± 1.2	–
193.18 K	146.68 ± 1.2	–
194.08 K	147.37 ± 1.2	–
194.98 K	147.95 ± 1.2	–
196.78 K	149.26 ± 1.2	–
197.68 K	149.46 ± 1.2	–
198.59 K	150.29 ± 1.2	–
199.5 K	151.03 ± 1.2	–
200 K	151.06 ± 1.2	–
200.7 K	151.27 ± 1.2	–
202.04 K	151.99 ± 1.2	–
203.39 K	152.98 ± 1.2	–
204.73 K	154.54 ± 1.3	–
206.08 K	154.9 ± 1.3	–
207.42 K	155.84 ± 1.3	–
208.77 K	156.73 ± 1.3	–
210 K	157.57 ± 1.3	–
210.11 K	157.51 ± 1.3	–
211.46 K	158.55 ± 1.3	–
212.8 K	159.5 ± 1.3	–
214.14 K	160.32 ± 1.3	–
215.49 K	161.29 ± 1.3	–
216.83 K	162.37 ± 1.3	–
218.17 K	163 ± 1.3	–
219.51 K	164.34 ± 1.3	–
220 K	164.63 ± 1.3	–
220.86 K	165.39 ± 1.4	–
222.28 K	166.49 ± 1.4	–
223.62 K	167.21 ± 1.4	–
224.96 K	168.09 ± 1.4	–
226.3 K	169.06 ± 1.4	–
227.64 K	170.12 ± 1.4	–
228.97 K	171 ± 1.4	–
230 K	171.85 ± 1.4	–
230.31 K	171.96 ± 1.4	–
231.65 K	173.01 ± 1.4	–
232.99 K	173.91 ± 1.4	–
234.32 K	174.98 ± 1.4	–
235.65 K	175.95 ± 1.4	–
236.99 K	176.85 ± 1.4	–
238.33 K	177.98 ± 1.4	–
239.66 K	179.01 ± 1.5	–
240 K	179.11 ± 1.5	–
240.99 K	179.99 ± 1.5	–
242.32 K	180.88 ± 1.5	–
243.73 K	181.99 ± 1.5	–
245.07 K	182.85 ± 1.5	–
246.4 K	183.79 ± 1.5	–
247.73 K	184.64 ± 1.5	–
249.06 K	185.75 ± 1.5	–
250 K	186.45 ± 1.5	–
250.39 K	185.54 ± 1.5	–
251.71 K	187.74 ± 1.5	–
253.03 K	188.91 ± 1.5	–
254.36 K	189.53 ± 1.5	–
255.68 K	190.6 ± 1.6	–
257 K	191.87 ± 1.6	–
258.32 K	192.68 ± 1.6	–
259.65 K	193.82 ± 1.6	–
260 K	193.93 ± 1.6	–
260.97 K	194.81 ± 1.6	–
262.28 K	195.65 ± 1.6	–
263.6 K	197.01 ± 1.6	–
264.98 K	198.01 ± 1.6	–
266.3 K	198.7 ± 1.6	–
267.61 K	199.72 ± 1.6	–
268.93 K	200.72 ± 1.6	–
270 K	201.56 ± 1.6	–
270.24 K	201.85 ± 1.6	–
271.55 K	202.64 ± 1.6	–
272.86 K	203.72 ± 1.6	–
274.17 K	204.75 ± 1.7	–
275.47 K	205.78 ± 1.7	–
276.77 K	206.87 ± 1.7	–
278.07 K	207.63 ± 1.7	–
279.37 K	208.98 ± 1.7	–
280 K	209.29 ± 1.7	–
280.67 K	209.89 ± 1.7	–
281.97 K	210.65 ± 1.7	–
283.26 K	211.51 ± 1.7	–
284.56 K	212.46 ± 1.7	–
285.9 K	213.85 ± 1.7	–
287.2 K	214.7 ± 1.7	–
288.49 K	216.02 ± 1.8	–
289.78 K	216.96 ± 1.8	–
290 K	216.99 ± 1.8	–
291.06 K	217.78 ± 1.8	–
292.34 K	219.03 ± 1.8	–
293.62 K	219.44 ± 1.8	–
294.9 K	220.27 ± 1.8	–
296.17 K	221.66 ± 1.8	–
297.45 K	223.35 ± 1.8	–
298.15 K	223.14 ± 1.8	–
298.72 K	223.61 ± 1.8	–
299.98 K	224.36 ± 1.8	–
300 K	224.51 ± 1.8	–
301.47 K	225.51 ± 1.8	–
303.12 K	227.1 ± 1.8	–
304.78 K	228.38 ± 1.9	–
306.45 K	228.99 ± 1.9	–
308.12 K	230.51 ± 1.9	–
309.79 K	231.08 ± 1.9	–
310 K	231.76 ± 1.9	–
311.46 K	232.91 ± 1.9	–
313.14 K	234.02 ± 1.9	–
314.83 K	234.92 ± 1.9	–
316.52 K	236.14 ± 1.9	–
318.22 K	238.29 ± 1.9	–
319.93 K	238.52 ± 1.9	–
320 K	238.87 ± 1.9	–
321.63 K	240.17 ± 1.9	–
323.34 K	241.21 ± 1.9	–
325.06 K	242.48 ± 2	–
330 K	245.96 ± 2	–
332.03 K	247.4 ± 2	302 ± 2.4
340 K	–	303.79 ± 2.5
348.64 K	–	304.58 ± 3.7
348.68 K	–	305.37 ± 3.7
350 K	–	306.04 ± 3.7
350.47 K	–	306.11 ± 3.7
350.59 K	–	307.42 ± 3.7
352.28 K	–	307.07 ± 3.7
352.61 K	–	306.03 ± 3.7
354.1 K	–	304.34 ± 3.7
354.59 K	–	307.75 ± 3.7
355.9 K	–	307.73 ± 3.7
356.6 K	–	308.43 ± 3.7
357.73 K	–	308.85 ± 3.7
358.63 K	–	305.76 ± 3.7
359.56 K	–	309.14 ± 3.7
360 K	–	308.41 ± 3.7
360.65 K	–	308.73 ± 3.7
361.57 K	–	306.43 ± 3.7
362.7 K	–	310.22 ± 3.7
363.41 K	–	309.69 ± 3.7
364.77 K	–	310.47 ± 3.7
365.26 K	–	310.84 ± 3.8
367.13 K	–	305.78 ± 4.2
367.19 K	–	311.76 ± 4.2
369.03 K	–	310.48 ± 3.8
369.32 K	–	308.58 ± 3.7
370 K	–	309.93 ± 3.7
370.91 K	–	308.47 ± 3.7
371.44 K	–	311.8 ± 3.8
